Source: EP1149907A1, “EDG8 receptor, its preparation and use” (Aventis Pharma Deutschland GmbH, priority 2000, dated 2001)

Columns and labels:
Assay in all cases: FLIPR assay of intracellular Ca2+ mobilization in transiently transfected CHO cells
[1] = system: human EDG8, SEQ ID NO. 2; format: cell-based; conditions: for increase in intracellular Ca2+ ([Ca2+]i): CHO cells transiently transfected with EDG8 and G-protein α subunits G16 and Gqi5, lipids applied at 10, 100 and 1000 nM (Fig.3)
Protocol: Fig.2 depicts measurement of the intracellular Ca2+ concentration, mediated by S1P via the different S1P-receptors EDG1, 3, 5, 6 and the putative S1P-receptor EDG8, cotransfected in CHO cells with empty vector DNA as a control or various G-protein α subunits. Intracellular Ca2+ concentrations were recorded as real time measurements using the Fluorescence plate imaging reader (FLIPR, Molecular Devices). […] As already known for a large number of Gq-coupled receptors, coexpression of Gaq augments the EDG1 and 5-mediated Ca2+-release as compared with the Ca2+ signal induced by stimulation of endogeneous Gaq. […] The reason for this discrepancy could be the cellular background, as Yamazaki Y. et al. (2000) reported that the Ca2+ signal can be completely abolished in the presence of pertussis toxin (PTX), indicating the involvement of Gi-type G-proteins. In this case the Ca2+ signal would be elicited by bg, released from activated Gaibg heterotrimers. The Gαi-induced Ca2+ signals are known to be much smaller in intensity as compared with the Ca2+ signals induced by bona-fide Gq-linked receptors (Kostenis et al., 1997a; Kostenis et al., 1997b). It may be that detection of such Ca2+ concentrations is beyond the sensitivity of the FLIPR system. […] To check, whether the EDG8 receptor also reacts to related lysophospholipid mediators, we examined the abilities of lysophosphatidic acid (LPA), dihydrosphingosin 1-phosphate (DHS1P), sphingosylphosphorylcholine (SPC) and lysophosphatidylcholine (LPC) to increase intracellular Ca2+ in CHO cells transiently transfected with the EDG8 receptor and the G-protein α subunits G16 and Gqi5 (Fig.3).
(§1) Fig.2: Mobilization of intracellular Ca^2+ by S1P mediated by the EDG1, 3, 5 and 8 receptor in CHO cells, cotransfected with empty vector DNA as a control or the indicated G-protein α subunits. Agonist-mediated changes of intracellular Ca^2+ were measured with the FLIPR using the Ca^2+-sensitive dye FLUO4. Fluorescence of transfected cells loaded with FLUO4 was recorded before and after addition of S1P, applied in the indicated concentrations. Data are expressed as means of quadruplicate determinations in a single experiment. An additional experiment gave similar results.
Fig.3: Effects of S1P, LPA and related lysophospholipid mediators on EDG8-mediated increase in intracellular Ca^2+ measured with the FLIPR as described in the legend of […]. The different lipids were applied in concentrations of 10, 100 and 1000 nM, respectively. Data are means of quadruplicate determinations of a representative experiment. Two additional experiments gave similar results.
CHO-K1 cells were grown in basal ISCOVE medium supplemented with 10% fetal bovine serum at 37°C in a humidified 5% CO2 incubator. For transfections, 2 x 10^5 cells were seeded into 35-mm dishes. About 24 hr later cells were transiently transfected at 50-80% confluency with the indicated receptor and G-protein constructs (1µg of plasmid DNA each) using the Lipofectamine transfection reagent and the supplied protocol (GIBCO). 18-24 hr after transfection cells were seeded into 96well plates at a density of 50.000 cells per well and cultured for 18-24 additional hr until used in the functional FLIPR assays. The cDNA for Gα16 was cloned from TF1 cells by RT-PCR and ligated into the pCDNA1.1 mammalian expression vector (Invitrogen). Murine wild type Gαq was cloned from cells by RT-PCR and inserted into the BamHI-NsiI-sites of pCDNA1.1. To create the C-terminally modified Gαqi5 subunit, in which the last five aa of wt Gαq were replaced with the correspoding Gαi sequence, a 175-bp Bg/II-NsiI fragment was replaced, in a two piece ligation, with a synthetic DNA fragment, containing the desired codon changes. The correctness of all PCR-derived sequences was verified by sequencing in both directions.
Twenty-four hours after transfection, cells were splitted into 96-well, black-wall microplates (Corning) at a density of 50,000 cells per well. […]

[2] = system: EDG1; format: cell-based, human; conditions: CHO cells transfected with EDG1, no cotransfected G-protein α subunit (Fig.2)
Protocol: (§2) Fig.2 depicts measurement of the intracellular Ca2+ concentration, mediated by S1P via the different S1P-receptors EDG1, 3, 5, 6 and the putative S1P-receptor EDG8, cotransfected in CHO cells with empty vector DNA as a control or various G-protein α subunits. Intracellular Ca2+ concentrations were recorded as real time measurements using the Fluorescence plate imaging reader (FLIPR, Molecular Devices). […] As already known for a large number of Gq-coupled receptors, coexpression of Gaq augments the EDG1 and 5-mediated Ca2+-release as compared with the Ca2+ signal induced by stimulation of endogeneous Gaq. […] The reason for this discrepancy could be the cellular background, as Yamazaki Y. et al. (2000) reported that the Ca2+ signal can be completely abolished in the presence of pertussis toxin (PTX), indicating the involvement of Gi-type G-proteins. In this case the Ca2+ signal would be elicited by bg, released from activated Gaibg heterotrimers. The Gαi-induced Ca2+ signals are known to be much smaller in intensity as compared with the Ca2+ signals induced by bona-fide Gq-linked receptors (Kostenis et al., 1997a; Kostenis et al., 1997b). It may be that detection of such Ca2+ concentrations is beyond the sensitivity of the FLIPR system. […]
as §1, with “An additional experiment gave similar results.” left out

[3] = system: EDG3; format: cell-based, human; conditions: CHO cells transfected with EDG3, no cotransfected G-protein α subunit (Fig.2)
Protocol: as §2
as §1, with “An additional experiment gave similar results.” left out

[4] = system: EDG5; format: cell-based, human; conditions: CHO cells transfected with EDG5, no cotransfected G-protein α subunit (Fig.2)
Protocol: as §2
as §1, with “An additional experiment gave similar results.” left out

[5] = system: EDG6; format: cell-based, human; conditions: CHO cells transfected with EDG6, no cotransfected G-protein α subunit
Protocol: as §2

Molecule: CCCCCCCC/C=C\CCCCCCCC(=O)OCC(O)COP(=O)(O)O (centres unmarked) [LPA, lysophosphatidic acid]
- increase in intracellular Ca2+ ([Ca2+]i) [1]: evoked [Ca2+]i increases in concentrations of 100 and 1000 nM

Molecule: CCCCCCCCCCCCC/C=C/[C@@H](O)[C@@H](N)COP(=O)([O-])OCC[N+](C)(C)C [SPC, sphingosylphosphorylcholine]
- increase in intracellular Ca2+ ([Ca2+]i) [1]: failed to generate any significant response in concentrations up to 1 µM

Molecule: lysophosphatidylcholine [LPC]
- increase in intracellular Ca2+ ([Ca2+]i) [1]: failed to generate any significant response in concentrations up to 1 µM

Molecule: CCCCCCCCCCCCC/C=C/[C@@H](O)[C@@H](N)COP(=O)(O)O [S1P, sphingosin 1-phosphate]
- mobilization of intracellular Ca2+ ([1]; CHO cells cotransfected with EDG8 and Gα16 or Gαqi5 (Fig.2)): gained the ability to mobilize Ca2+
- mobilization of intracellular Ca2+ ([1]; CHO cells transfected with EDG8, no cotransfected G-protein α subunit (Fig.2)): did not release intracellular Ca2+
- increase in intracellular Ca2+ ([Ca2+]i) [1]: most potent activator of EDG8
- mobilization of intracellular Ca2+ [2]: elicited intracellular Ca2+ signals
- mobilization of intracellular Ca2+ [3]: elicited intracellular Ca2+ signals
- mobilization of intracellular Ca2+ [4]: elicited intracellular Ca2+ signals
- mobilization of intracellular Ca2+ [5]: failed to detect a significant Ca2+ increase above basal levels

Molecule: CCCCCCCCCCCCCCC[C@@H](O)[C@@H](N)COP(=O)(O)O [DHS1P, dihydrosphingosin 1-phosphate]
- increase in intracellular Ca2+ ([Ca2+]i) [1]: evoked [Ca2+]i increases in concentrations of 100 and 1000 nM
